# Results as given in patent publication US11478451B1, “Macrocyclic chlorine substituted indole derivatives” (Bayer Aktiengesellschaft, priority 2017, dated 2022).
# pIC50: −log10 of the molar value. Where “and” joins values, the source holds several entries; their conditions need not be identical. Identical values can stand only once. Counter-ions that a name gives are not always drawn. Like-named read-outs stand apart in the source and are kept apart here.
# Key:
# SNU-389 cells = assay: Antiproliferation assay (CellTiter-Glo, 72 h), SNU-389; assay type: cell-based; conditions: IC50, median; SNU-389, 72 h; read-out: Antiproli SNU-389 [M] median
# Summary of the method: (§1)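 Luminescent ATP-based viability (CellTiter-Glo) measured after 72 h of compound treatment at 37 °C. A day 0 plate recorded at time zero served as the starting reference for proliferation.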
# DMS-114 cells = assay: Antiproliferation assay (CellTiter-Glo, 72 h), DMS-114; assay type: cell-based; conditions: IC50, median; DMS-114, 72 h; read-out: Antiproli DMS-114 [M] median
# Summary of the method: as §1
# MV-4-11 cells = assay: Antiproliferation assay (CellTiter-Glo, 72 h), MV-4-11; assay type: cell-based; conditions: IC50, median, MV-4-11, 72 h, read-out: Antiproli MV-4-11 [M] median
# Experimental: (§2) Assessment of the Anti-Proliferative Effect of Compounds in Different Cell Lines
# (§3) The impact of compounds on the proliferation of different cell lines was assessed using the CellTiter-Glo® Luminescent Cell Viability reagent from Promega (G7573).
# (§4) In parallel, cells were plated in a reference (day 0) plate for time zero determination.
# (§5) Rim wells were excluded. The cells were incubated for 72 h hours in a humidified incubator at 37° C. The day 0 plate was measured by adding 30 μL/well of CTG solution (CellTiter-Glo® Luminescent Cell Viability reagent, Promega G7573) to time zero wells in the reference plate followed by a 10 minutes incubation and luminescence reading at 0.1 ms. using the PHERAstar FS microplate reader (BMG Labtech).
# (§6) After 72 h incubation, the treated plates were measured in the same way as the day 0 plate mentioned above.
# SUDHL5 cells [1] = assay: Antiproliferation assay (CellTiter-Glo, 72 h), SUDHL5; assay type: cell-based; conditions: IC50, median, SUDHL5, 72 h, read-out: Antiproli SUDHL5 [M] (median)
# Summary of the method: as §1
# HMC-1-8 cells = assay: Antiproliferation assay (CellTiter-Glo, 72 h), HMC-1-8; assay type: cell-based; conditions: IC50, median, HMC-1-8, 72 h, read-out: Antiproli HMC-1-8 [M] median
# Summary of the method: as §1
# SUDHL10 cells [2] = assay: Induction of cytotoxicity (CellTiter-Glo, 5 h), SUDHL10; conditions: SUDHL10, 5 h
# T47D cells = assay: Antiproliferation assay (CellTiter-Glo, 72 h), T47D; assay type: cell-based; conditions: IC50, median, T47D (head printed T4713), read-out: Antiproli T4713 [M] median
# Experimental: as §2, §3, §4, §5, §6
# AMO-1 cells = assay: Antiproliferation assay (CellTiter-Glo, 72 h), AMO-1; assay type: cell-based; conditions: IC50, median, AMO-1, 72 h, read-out: Antiproli AMO-1 [M] median
# Summary of the method: as §1
# SUDHL10 cells [3] = assay: Antiproliferation assay (CellTiter-Glo, 72 h), SUDHL10; assay type: cell-based; conditions: IC50, median; SUDHL10, 72 h; read-out: Antiproli SUDHL10 [M] (median)
# Experimental: as §2, §3, §4, §5, §6
# KYSE-180 cells = assay: Antiproliferation assay (CellTiter-Glo, 72 h), KYSE-180; assay type: cell-based; conditions: IC50, median; KYSE-180, 72 h; read-out: Antiproli KYSE-180 [M] median
# Experimental: as §2, §3, §4, §5, §6
# A2058 cells = assay: Antiproliferation assay (CellTiter-Glo, 72 h), A2058; assay type: cell-based; conditions: A2058, 72 h, read-out: Antiproli A2058 [M] median
# Experimental: as §2, §3, §4, §5, §6
# SK-BR-3 cells = assay: Antiproliferation assay (CellTiter-Glo, 72 h), SK-BR-3; assay type: cell-based; conditions: IC50, median, SK-BR-3, 72 h, read-out: Antiproli SK-BR-3 [M] median
# Experimental: as §2, §3, §4, §5, §6
# NCI-H23 cells = assay: Antiproliferation assay (CellTiter-Glo, 72 h), NCI-H23; assay type: cell-based; conditions: NCI-H23, 72 h, read-out: Antiproli NCI-H23 [M] median
# Experimental: as §2, §3, §4, §5, §6
# SUDHL5 cells [4] = assay: Induction of cytotoxicity (CellTiter-Glo, 5 h), SUDHL5; conditions: SUDHL5, 5 h
# Experimental: (§11) Therefore, cytotoxicity assays were run in parallel in SUDHL5 and SUDHL10 cells.
# (§12) The different cell lines were plated in culture medium (RPMI 1640 [GIBCO #22400-089] supplemented with 10% Fetal Bovine Serum) at a density of 3,300 cells in 30 μL/well in a sterile, solid black, flat bottom, polystyrene, TC-treated 384-well microplate (Corning #3571) using Multidrop Combi Reagent Dispenser. As a control, medium without cells was also added to the plate. Cells were incubated in a humidified incubator at 37° C. overnight. […] Rim wells were excluded. The cells were incubated for 5 h hours in a humidified incubator at 37° C. After this incubation, 30 μL of CellTiter-Glo® Luminescent Cell Viability reagent (Promega, G7573) was added to each well using the Multidrop Combi Reagent Dispenser, followed by 15 min incubation on a shaker at room temperature. Finally, luminescence was read at 0.1 ms, with a gain of 3000 using the PHERAstar FS microplate reader (BMG Labtech).
# SUDHL5 cells [5] = assay: Induction of caspase-3/7 activity (Caspase-Glo 3/7), SUDHL5; assay type: cell-based; conditions: EC50, median, SUDHL5, 3 h treatment
# Summary of the method: (§7)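 Steps: seed the diffuse large B-cell lymphoma cells, leaving rim wells unused; add compounds; incubate 3 h at 37 °C; add Caspase-Glo 3/7 reagent; read; subtract medium-only background.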
# SUDHL10 cells [6] = assay: Induction of caspase-3/7 activity (Caspase-Glo 3/7), SUDHL10; assay type: cell-based; conditions: EC50, median, SUDHL10, 3 h treatment
# Summary of the method: as §7
# MCL-1 = MCL-1 (Homo sapiens (Human), UniProt Q07820, K194A/K197A/R201A); assay: Protein-protein interaction assay MCL-1/Noxa BH3 peptide (MCL-1 assay), TR-FRET; assay type: binding; conditions: IC50, median; MCL-1/Noxa BH3 TR-FRET
# Experimental: The dose-dependent inhibition by the compounds described in this invention of the interaction between MCL-1 and the BH3 domain of Noxa (both human) was determined using a steady state binding competition assay with time-resolved fluorescence energy transfer (TR-FRET) readout. […] The MBP-MCL-1 was purchased from Beryllium (Bedford, Mass., USA). The expression and purification of this protein construct has been described elsewhere (DOI:10.1371/journal.pone.0125010). The Noxa BH3-derived peptide can be obtained from e.g. Biosyntan (Berlin, Germany), 50812.1.
# (§8) For that, 100-fold concentrated DMSO solutions were prepared by serial dilutions (1:3.4) of a 2 mM stock solution in a clear, 384-well microtiter plate (Greiner Bio-One, Frickenhausen, Germany). From there, 50 nl were transferred in a dark test plate (Greiner Bio-One, Frickenhausen, Germany). […] This was followed by a 10-minute incubation step at 22° C. for pre-equilibration of the putative complex between MBP-MCL-1 and the compounds.
# (§9) The mixture was incubated in the dark for one hour at 22° C. and then overnight at 4° C.
# (§10) The resulting data (ratio) were normalized, taking 0% inhibition as the mean value of control measurements (usually 32 data points) where all reagents were included. In this case 50 nl DMSO were used instead of compounds. […] IC50 values were determined by regression analysis based on a 4 parameter equation (minimum, maximum, IC50, Hill; Y=Max+(Min−Max)/(1+(X/IC50)^Hill) using the Screener Software (Genedata).
# SUDHL5 cells [7] = system: SUDHL5 cells
# Experimental: as §11, §12
# BCL-2 = BCL-2 (Homo sapiens (Human), UniProt P10415); assay: Protein-protein interaction assay BCL-2/Bad BH3 peptide (BCL-2 assay), TR-FRET; assay type: binding; conditions: IC50, median; BCL-2/Bad BH3 TR-FRET
# Experimental: The dose-dependent inhibition by the compounds described in this invention of the interaction between BCL-2 and the BH3 domain of Bad (both human) was determined using a steady state binding competition assay with time-resolved fluorescence energy transfer (TR-FRET) readout.
# as §8, with “His-BCL-2” for “MBP-MCL-1”
# as §9, §10
# BCL-XL = BCL-XL (Homo sapiens (Human), UniProt Q07817); assay: Protein-protein interaction assay BCL-XL/Bad BH3 peptide (BCL-XL assay), TR-FRET; assay type: binding; conditions: IC50, median
# Experimental: The dose-dependent inhibition by the compounds described in this invention of the interaction between BCL-XL and the BH3 domain of Bad (both human) was determined using a steady state binding competition assay with time-resolved fluorescence energy transfer (TR-FRET) readout.
# as §8, with “His-BCL-XL” for “MBP-MCL-1”
# as §9, §10
# SUDHL10 cells [8] = system: SUDHL10 cells
# [9] = read-out: Cytotox SUDHL10 [M] (median), IC50, median
# [10] = read-out: Cytotox SUDHL5 [M] (median), IC50, median
# Sequence of BCL-2 (P10415 1-211): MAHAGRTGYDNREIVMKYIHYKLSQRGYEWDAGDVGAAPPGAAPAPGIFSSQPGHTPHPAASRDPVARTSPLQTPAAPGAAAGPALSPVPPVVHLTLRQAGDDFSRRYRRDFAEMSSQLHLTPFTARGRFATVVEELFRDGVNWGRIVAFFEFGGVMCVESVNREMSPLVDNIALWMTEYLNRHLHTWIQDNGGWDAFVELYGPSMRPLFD
# Sequence of BCL-XL (Q07817 1-212): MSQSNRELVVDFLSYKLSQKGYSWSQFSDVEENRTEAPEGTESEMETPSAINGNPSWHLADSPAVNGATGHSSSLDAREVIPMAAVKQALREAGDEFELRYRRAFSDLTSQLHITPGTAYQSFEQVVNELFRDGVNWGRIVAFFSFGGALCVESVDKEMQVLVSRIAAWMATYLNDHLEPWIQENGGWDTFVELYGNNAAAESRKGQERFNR
# Sequence of MCL-1 (Q07820 whole entry K194A/K197A/R201A, looked up, the tested form may be a part): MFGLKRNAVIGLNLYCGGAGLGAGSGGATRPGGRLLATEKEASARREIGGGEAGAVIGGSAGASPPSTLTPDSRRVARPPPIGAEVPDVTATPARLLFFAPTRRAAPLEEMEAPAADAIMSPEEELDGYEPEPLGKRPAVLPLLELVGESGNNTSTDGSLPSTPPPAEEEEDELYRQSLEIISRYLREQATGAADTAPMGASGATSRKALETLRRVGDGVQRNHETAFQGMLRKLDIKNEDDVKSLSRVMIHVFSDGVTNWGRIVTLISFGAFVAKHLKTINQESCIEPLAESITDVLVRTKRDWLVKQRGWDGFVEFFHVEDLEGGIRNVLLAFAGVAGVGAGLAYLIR
SMILES,IC50 (SNU-389 cells) [M],IC50 (DMS-114 cells) [M],IC50 (MV-4-11 cells) [M],IC50 (SUDHL5 cells [1]) [M],IC50 (HMC-1-8 cells) [M],IC50 (SUDHL10 cells [2]; [9]) [M],IC50 (T47D cells) [M],IC50 (AMO-1 cells) [M],IC50 (SUDHL10 cells [3]) [M],"IC50 (A2058 cells; IC50, median) [M]",IC50 (SK-BR-3 cells) [M],IC50 (SUDHL5 cells [4]; [10]) [M],EC50 (SUDHL5 cells [5]) [nM],EC50 (SUDHL10 cells [6]) [nM],further results
"Cc1c2c(nn1C)CN(C)CCCCn1c(C(=O)O)c(CCCOc3cccc4ccccc34)c3ccc(Cl)c-2c31 (single isomer, unassigned; enantiomer 1) [Example 12, (+)-4-chloro-2,3,14-trimethyl-7-[3-(naphthalen-1-yloxy)propyl]-10,11,12,13,14,15-hexahydro-2H-pyrazolo[3′,4′:8,9][1,6]diazacycloundecino[10,11,1-hi]indole-8-carboxylic acid-N-ethylethanamine salt (Enantiomer 1)]",7.22e-07,1.32e-06,4.41e-07,1.7e-07,1.6e-06,1.4e-07,7.1e-06,3.3e-07,1.4e-07,4.83e-06,6.67e-07,,,,IC50 (KYSE-180 cells): 3.79e-06 M
"Cc1c2c(nn1C)COCCCCn1c(C(=O)O)c(CCCOc3cccc4ccccc34)c3ccc(Cl)c-2c31 (single isomer, unassigned; enantiomer 1) [Example 26, 4-chloro-2,3-dimethyl-7-[3-(naphthalen-1-yloxy)propyl]-2,10,11,12,13,15-hexahydropyrazolo-[4′,3′:9,10][1,6]oxazacycloundecino[8,7,6-hi]indole-8-carboxylic acid-N-ethylethanamine salt (Enantiomer 1)]",1.66e-06,1.76e-06,1.81e-06,5.8e-07,2.9e-06,5e-07,,1e-06,,1.49e-05,3.3e-06,4.6e-07,250,410,"IC50 (NCI-H23 cells; IC50, median): 2.32e-06 M"
"Cc1c2c(nn1C)COCCCCn1c(C(=O)O)c(CCCOc3cccc4ccccc34)c3ccc(Cl)c-2c31 (racemic) [Example 25, (rac)-4-chloro-2,3-dimethyl-7-[3-(naphthalen-1-yloxy)propyl]-2,10,11,12,13,15-hexahydropyrazolo[4′,3′:9,10][1,6]oxazacycloundecino[8,7,6-hi]indole-8-carboxylic acid]",,,,,,,,,,,,,,,"IC50 (NCI-H23 cells; Homo sapiens): 6.01e-06 M; IC50 (MV-4-11 cells; Homo sapiens, MV4-11, 72 h): 2.78e-06 M; IC50 (SUDHL5 cells [1]; Homo sapiens, SU-DHL-5, 72 h): 5.6e-07 M; IC50 (HMC-1-8 cells; 72 h): 6.5e-06 M; IC50 (SUDHL10 cells [2]; Homo sapiens, SU-DHL10, 5 h, read-out: Cytotox SUDHL10 [M] (median), IC50, median): 9.3e-07 M; IC50 (AMO-1 cells; Homo sapiens, AMO1, 72 h): 1.3e-06 M; IC50 (SUDHL5 cells [4]; Homo sapiens, SU-DHL-5, 5 h, read-out: Cytotox SUDHL5 [M] (median), IC50, median): 5.3e-07 M; EC50 (SUDHL5 cells [5]; Homo sapiens, SU-DHL-5, 3 h): 390 nM; IC50 (A2058 cells; Homo sapiens): 2.19e-05 M; IC50 (SK-BR-3 cells; Homo sapiens): 1.29e-05 M; EC50 (SUDHL10 cells [6]; Homo sapiens, SU-DHL10, 3 h): 1200 nM"
"CCc1c2c(nn1C)COC/C=C\Cn1c(C(=O)O)c(CCCOc3cccc4ccccc34)c3ccc(Cl)c-2c31 (racemic) [Example 18, (rac)-(11Z)-4-chloro-3-ethyl-2-methyl-7-[3-(naphthalen-1-yloxy)propyl]-2,10,13,15-tetrahydropyrazolo[4′,3′:9,10][1,6]oxazacycloundecino[8,7,6-hi]indole-8-carboxylic acid]",,,4.71e-06,1.4e-06,,,,,,,,,1100,1300,IC50 (MCL-1): 1.3 nM; pIC50 (SUDHL5 cells [7]): 5.92; IC50 (BCL-2): > 20000 nM and 19000 nM and 20000 nM; IC50 (BCL-XL): > 20000 nM; pIC50 (SUDHL10 cells [8]): 5.89
"Cc1c2c(nn1C)COCCCCn1c(C(=O)O)c(CCCOc3cccc4cc(F)ccc34)c3ccc(Cl)c-2c31 (single isomer, unassigned; enantiomer 1) [Example 15, (+)-4-chloro-7-{3-[(6-fluoronaphthalen-1-yl)oxy]propyl}-2,3-dimethyl-2,10,11,12,13,15-hexahydropyrazolo[4′,3′:9,10][1,6]oxazacycloundecino[8,7,6-hi]indole-8-carboxylic acid-N-ethylethanamine salt (Enantiomer 1)]",9.28e-07,6.42e-07,4.61e-07,1.9e-07,1.4e-06,2.3e-07,1.19e-05,5.3e-07,2e-07,5.86e-06,,1.4e-07,120,150,
